The target in this experiment is human CGAS (157-522) (Homo sapiens, UniProt Q8N884). The experiment is described as follows: biochemical.

Structures are written as SMILES. Where a name gives a salt, the structure may show the parent alone.

In general, IC50 refers to the concentration at which inhibition is half-maximal. Lower therefore signals greater potency.
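Also: biochemical enzyme reaction, 2′3′-cGAMP product measured by RapidFire mass spectrometry (MRM) normalised to c-di-UMP internal standard, inhibition of product formation relative to high and low control wells.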

human CGAS (157-522), sequence (Q8N884 157-522): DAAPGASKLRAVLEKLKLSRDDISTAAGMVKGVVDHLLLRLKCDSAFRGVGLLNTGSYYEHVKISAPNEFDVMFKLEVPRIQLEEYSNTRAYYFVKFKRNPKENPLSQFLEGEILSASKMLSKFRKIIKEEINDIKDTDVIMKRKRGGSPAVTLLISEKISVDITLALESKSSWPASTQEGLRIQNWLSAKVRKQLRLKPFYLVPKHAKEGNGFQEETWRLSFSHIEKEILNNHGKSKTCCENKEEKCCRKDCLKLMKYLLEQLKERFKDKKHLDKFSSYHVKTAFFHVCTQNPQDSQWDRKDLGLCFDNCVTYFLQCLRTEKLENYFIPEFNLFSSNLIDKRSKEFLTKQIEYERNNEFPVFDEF
Method: Compounds were serially diluted 2, 3, or 4-fold in neat DMSO to generate 11-point dose response curves and then 250 nL compound or DMSO solution was transferred to Greiner 384-well V-bottom assay plates (Catalog #781280) using an Echo acoustic dispenser (Labcyte). A solution of 150 μM ATP, 150 μM GTP, 20 μM pppGpA (GTP-2′5′-AMP, custom synthesis from ChemGenes), and 10 μg/mL sheared salmon sperm DNA (Sigma, Catalog #D1626) in assay buffer (20 mM Trizma, pH 7.5, 10 mM magnesium chloride, 0.3 mM CHAPS, and 0.01% (w/v) bovine serum albumin) was added to columns 1-17, 19-24 of the plate at 12.5 μL/well using a Combi liquid handler (ThermoFisher). A 12.5 μL/well low control solution containing 150 μM ATP, 150 μM GTP, 20 μM pppGpA in assay buffer was added to column 18 using the Combi. A 12.5 μL/well solution of 10-100 nM human CGAS (157-522) in assay buffer was then added to all wells of the plate using the Combi. […] Reactions were quenched by added 50 μL/well of 0.5% (v/v) trifluoroacetic acid (TFA) in mass spectrometry grade deionized water containing 5 μM cyclic-di-UMP (ci-di-UMP; Invivogen Catalog #tlrl-cdu) as the internal standard (IS). Plates were centrifuged for 1 min and then quenched reactions were analyzed using a RF-MS 300 system operating in a Multiple Reaction Monitoring (MRM) detection mode.
Samples (10 μL injection volume) were passed over a silica C18/type C solid phase extraction (SPE) cartridge for analyte (2′3′-cyclic guanosine monophosphate adenosine monophosphate (2′3′-cGAMP), product of biochemical reaction)/pppGpA/c-di-UMP IS adsorption. Adsorbed samples were desalted for 3000 ms using a 100% water eluent A/desalting solution. Afterwards, desalted samples were eluted using a 0.5% TFA in 20%/80% acetonitrile/water eluent B/elution solution directly into either a Sciex 4000, 5000 or 5500 triple quadrupole mass spectrometer (QQQ-MS) for MRM analyte/IS detection. QQQ-MS detection conditions were as follow: scan type: MRM; curtain (CUR) gas: 30 psi; nebulizer (GS1) gas: 50 psi; drying (GS2) gas: 60 psi; collisionally activated dissociation (CAD) gas: 12 relative setting; precursor ion (Q1) masses: 2′3′-cGAMP: m/z 675.1 Da/pppGpA: m/z 853.0 Da/c-di-UMP: m/z 613.1 Da; fragment ion (Q3) masses: 2′3′-cGAMP: m/z 524.1 Da/pppGpA: m/z 702.0 Da/c-di-UMP: 307.1 Da; declustering potentials (DPs): 2′3′-cGAMP: +81 V/pppGpA: +85 V/c-di-UMP: +85 V; entrance potential: +10 V (all analytes); collision energies (CEs): 2′3′-cGAMP: +33 V/pppGpA: +36 V/c-di-UMP: +35 V; collision cell exit potential (CXP): +10 V (all analytes); interface heater (Sciex 4000/5000 only): on; Q1 resolution: unit (all analyte); Q3 resolution: unit (all analytes). The area under the curve (AUC) for all analytes was obtained using the RapidFire Integrator software application to calculate AUC-2′3′-cGAMP/AUC-c-di-UMP intensity ratio. Percent product formation was calculated by comparison to column 6 (high control)/column 18 (low control) responses. The % product inhibition was calculated as follows:
[formula] where A is the minimum response, B is the maximum response, C is the log10*XC50, D is the slope factor, and x is the log10 compound concentration [M] in ABASE XE.

On to `CC(C)Oc1ccn2c(-c3c[nH]cn3)c(-c3nc(Br)n[nH]3)nc2n1` [Example 40, 3-bromo-5-[3-(1H-imidazol-4-yl)-7-(propan-2-yloxy)imidazo[1,2-a]pyrimidin-2-yl]-1H-1,2,4-triazole], for which it took 0.0251 µM to reach half-maximal inhibition (IC50).
For `CS(=O)(=O)Oc1cnc2nc(-c3nc(C(F)(F)F)n[nH]3)c(-c3cnc[nH]3)n2c1` [Example 20, 3-(1H-Imidazol-5-yl)-2-(3-(trifluoromethyl)-1H-1,2,4-triazol-5-yl)imidazo[1,2-a]pyrimidin-6-yl methanesulfonate] the value was 0.002 µM; for `FC(F)(F)c1n[nH]c(-c2nc3ncc(Cl)cn3c2-c2cnc[nH]2)n1` [Example 45, 5-[6-chloro-3-(1H-imidazol-5-yl)imidazo[1,2-a]pyrimidin-2-yl]-3-(trifluoromethyl)-1H-1,2,4-triazole], 0.00316 µM; for `FC(F)(F)c1n[nH]c(-c2nc3ncc(CCN4CCOCC4)cn3c2-c2cnc[nH]2)n1` [Example 122, 4-{2-[3-(1H-imidazol-5-yl)-2-[3-(trifluoromethyl)-1H-1,2,4-triazol-5-yl]imidazo[1,2-a]pyrimidin-6-yl]ethyl}morpholine], 0.00501 µM.
For `FC(F)(F)c1ccn2c(-c3cnc[nH]3)c(-c3ncn[nH]3)nc2n1` [Example 97, 5-[3-(1H-imidazol-5-yl)-7-(trifluoromethyl)imidazo[1,2-a]pyrimidin-2-yl]-1H-1,2,4-triazole] the value was 7.94 µM; for `FC(F)(F)c1n[nH]c(-c2nc3nc4c(cn3c2-c2cnc[nH]2)CCO4)n1` [Example 48, 12-(1H-imidazol-5-yl)-11-[3-(trifluoromethyl)-1H-1,2,4-triazol-5-yl]-6-oxa-1,8,10-triazatricyclo[7.3.0.0^3,^7]dodeca-2,7,9,11-tetraene], 0.002 µM.
For `FC(F)(F)c1n[nH]c(-c2nc3nc(N4CCOCC4)ccn3c2-c2c[nH]cn2)n1` [Example 42, 4-[3-(1H-imidazol-4-yl)-2-[3-(trifluoromethyl)-1H-1,2,4-triazol-5-yl]imidazo[1,2-a]pyrimidin-7-yl]morpholine] the value was 0.0251 µM.
`CC(C)(C)CNC(=O)c1cnc2nc(-c3nc(C(F)(F)F)n[nH]3)c(-c3cnc[nH]3)n2c1` [Example 94, N-(2,2-dimethylpropyl)-3-(1H-imidazol-5-yl)-2-[3-(trifluoromethyl)-1H-1,2,4-triazol-5-yl]imidazo[1,2-a]pyrimidine-6-carboxamide]: the IC50 was 1.58 µM.
For `Cc1cn(C)c(COCc2cnc3nc(-c4nc(C(F)(F)F)n[nH]4)c(-c4c[nH]cn4)n3c2)n1` [Example 158, 5-(6-{[(1,4-dimethyl-1H-imidazol-2-yl)methoxy]methyl}-3-(1H-imidazol-4-yl)imidazo[1,2-a]pyrimidin-2-yl)-3-(trifluoromethyl)-1H-1,2,4-triazole] the value was 0.00794 µM.
For `COC(=O)c1ccn2c(-c3cn[nH]c3)c(-c3nc(Br)n[nH]3)nc2n1` [Example 35, methyl 2-(3-bromo-1H-1,2,4-triazol-5-yl)-3-(1H-pyrazol-4-yl)imidazo[1,2-a]pyrimidine-7-carboxylate] the value was 0.00316 µM.
For `[O-][S+]1CCc2nc3nc(-c4nc(C(F)(F)F)n[nH]4)c(-c4cnc[nH]4)n3cc2C1` (centres unmarked) [Example 116, 6-(1H-imidazol-5-yl)-5-[3-(trifluoromethyl)-1H-1,2,4-triazol-5-yl]-11λ^4-thia-2,4,7-triazatricyclo[7.4.0.0^3,^7]trideca-1,3,5,8-tetraen-11-one] the value was 0.00501 µM; for `O=C(O)c1ccn2c(-c3c[nH]cn3)c(-c3nc(C(F)(F)F)n[nH]3)nc2n1` [Example 102, 3-(1H-imidazol-4-yl)-2-[3-(trifluoromethyl)-1H-1,2,4-triazol-5-yl]imidazo[1,2-a]pyrimidine-7-carboxylic acid], 0.00316 µM.
Take `Cc1n[nH]c(-c2nc3nc(C(F)(F)F)ccn3c2-c2cnc[nH]2)n1` [Example 98, 5-[3-(1H-imidazol-5-yl)-7-(trifluoromethyl)imidazo[1,2-a]pyrimidin-2-yl]-3-methyl-1H-1,2,4-triazole]: the IC50 was 0.794 µM. Against the preceding compound, the IC50 is about 250-fold higher.
In the case of `CN(C)c1ccn2c(-c3cnc[nH]3)c(-c3nc(C(F)(F)F)n[nH]3)nc2n1` [Example 43], half-maximal inhibition (IC50) was put at 0.0158 µM.
For `CCc1nc2nc(-c3nc(C(F)(F)F)n[nH]3)c(-c3cnc[nH]3)n2cc1C` [Example 47, 5-[7-ethyl-3-(1H-imidazol-5-yl)-6-methylimidazo[1,2-a]pyrimidin-2-yl]-3-(trifluoromethyl)-1H-1,2,4-triazole] the value was 0.00158 µM; for `Oc1cnc2nc(-c3nc(C(F)(F)F)n[nH]3)c(-c3cnc[nH]3)n2c1` [Example 60, 3-(1H-imidazol-5-yl)-2-[3-(trifluoromethyl)-1H-1,2,4-triazol-5-yl]imidazo[1,2-a]pyrimidin-6-ol], 0.000794 µM.
For `COc1nc2nc(-c3nc(C(F)(F)F)n[nH]3)c(-c3cnc[nH]3)n2cc1C` [Example 59, 5-[3-(1H-imidazol-5-yl)-7-methoxy-6-methylimidazo[1,2-a]pyrimidin-2-yl]-3-(trifluoromethyl)-1H-1,2,4-triazole] the value was 0.0126 µM; for `COc1cc(OC)n2c(-c3c[nH]cn3)c(-c3nc(C(F)(F)F)n[nH]3)nc2n1` [Example 49, 5-[3-(1H-imidazol-4-yl)-5,7-dimethoxyimidazo[1,2-a]pyrimidin-2-yl]-3-(trifluoromethyl)-1H-1,2,4-triazole], 0.0126 µM.
For `Cc1cn2c(-c3cnc[nH]3)c(-c3nc(C(F)(F)F)n[nH]3)nc2nc1C` [Example 52, 5-[3-(1H-imidazol-5-yl)-6,7-dimethylimidazo[1,2-a]pyrimidin-2-yl]-3-(trifluoromethyl)-1H-1,2,4-triazole] the value was 0.00501 µM; for `CN1CCC(Oc2ccn3c(-c4c[nH]cn4)c(-c4nc(C(F)(F)F)n[nH]4)nc3n2)CC1` [Example 132, 4-{[3-(1H-imidazol-4-yl)-2-[3-(trifluoromethyl)-1H-1,2,4-triazol-5-yl]imidazo[1,2-a]pyrimidin-7-yl]oxy}-1-methylpiperidine], 0.0398 µM; for `CN1Cc2cn3c(-c4cnc[nH]4)c(-c4nc(C(F)(F)F)n[nH]4)nc3nc2C(F)(F)C1` [Example 18, 13,13-difluoro-6-(1H-imidazol-5-yl)-11-methyl-5-[3-(trifluoromethyl)-1H-1,2,4-triazol-5-yl]-2,4,7,11-tetraazatricyclo[7.4.0.0^3,7]trideca-1,3,5,8-tetraene, trifluoroacetic acid salt], 0.0126 µM.
In turn, `COC(=O)c1ccn2c(-c3c[nH]cn3)c(-c3nc(Br)n[nH]3)nc2n1` [Example 36, methyl 2-(3-bromo-1H-1,2,4-triazol-5-yl)-3-(1H-imidazol-4-yl)imidazo[1,2-a]pyrimidine-7-carboxylate] showed an IC50 of 0.00316 µM.
For `Cn1cc(-c2c(-c3nc(C(F)(F)F)n[nH]3)nc3ncccn23)cn1` [Example 131, 5-[3-(1-methyl-1H-pyrazol-4-yl)imidazo[1,2-a]pyrimidin-2-yl]-3-(trifluoromethyl)-1H-1,2,4-triazole] the value was 15.8 µM.
For `FC(F)(F)c1n[nH]c(-c2nc3ncccn3c2-c2cn[nH]c2)n1` [Example 11, 5-[3-(1H-pyrazol-4-yl)imidazo[1,2-a]pyrimidin-2-yl]-3-(trifluoromethyl)-1H-1,2,4-triazole, trifluoroacetic acid salt] the value was 0.01 µM; for `O=C(O)Cc1cnc2nc(-c3nc(C(F)(F)F)n[nH]3)c(-c3cnc[nH]3)n2c1` [Example 92, 2-[3-(1H-imidazol-5-yl)-2-[3-(trifluoromethyl)-1H-1,2,4-triazol-5-yl]imidazo[1,2-a]pyrimidin-6-yl]acetic acid], 0.01 µM; for `Brc1n[nH]c(-c2nc3ncccn3c2-c2c[nH]cn2)n1` [Example 37, 3-bromo-5-[3-(1H-imidazol-4-yl)imidazo[1,2-a]pyrimidin-2-yl]-1H-1,2,4-triazole, trifluoroacetic acid salt], 0.00316 µM.
For `Cc1cnc2nc(-c3nc(C(F)(F)F)n[nH]3)c(-c3cnc[nH]3)n2c1` [Example 54, 5-[3-(1H-imidazol-5-yl)-6-methylimidazo[1,2-a]pyrimidin-2-yl]-3-(trifluoromethyl)-1H-1,2,4-triazole] the value was 0.00631 µM; for `COc1cn2c(-c3c[nH]cn3)c(-c3nc(C(F)(F)F)n[nH]3)nc2nc1C` [Example 51, 5-[3-(1H-imidazol-4-yl)-6-methoxy-7-methylimidazo[1,2-a]pyrimidin-2-yl]-3-(trifluoromethyl)-1H-1,2,4-triazole], 0.01 µM.
As to `OC1CCN(c2ccn3c(-c4cnc[nH]4)c(-c4nc(C(F)(F)F)n[nH]4)nc3n2)C1` (centres unmarked) [Example 53, 1-[3-(1H-imidazol-5-yl)-2-[3-(trifluoromethyl)-1H-1,2,4-triazol-5-yl]imidazo[1,2-a]pyrimidin-7-yl]pyrrolidin-3-ol], the IC50 is 0.0158 µM.
For `OC1CCCN(c2ccn3c(-c4cnc[nH]4)c(-c4nc(C(F)(F)F)n[nH]4)nc3n2)C1` (centres unmarked) [Example 56, 1-[3-(1H-imidazol-5-yl)-2-[3-(trifluoromethyl)-1H-1,2,4-triazol-5-yl]imidazo[1,2-a]pyrimidin-7-yl]piperidin-3-ol] the value was 0.02 µM; for `CC(O)C(O)COCc1cnc2nc(-c3nc(C(F)(F)F)n[nH]3)c(-c3cnc[nH]3)n2c1` (centres unmarked) [Example 112, 1-{[3-(1H-imidazol-5-yl)-2-[3-(trifluoromethyl)-1H-1,2,4-triazol-5-yl]imidazo[1,2-a]pyrimidin-6-yl]methoxy}butane-2,3-diol], 0.00794 µM; for `FC(F)(F)c1n[nH]c(-c2nc3ncc(COc4cccnc4)cn3c2-c2cnc[nH]2)n1` [Example 119, 3-{[3-(1H-imidazol-5-yl)-2-[3-(trifluoromethyl)-1H-1,2,4-triazol-5-yl]imidazo[1,2-a]pyrimidin-6-yl]methoxy}pyridine], 0.158 µM.

The values above are taken from patent US12247033B2, “Triazole-substituted imidazo[1,2-a]pyrimidines as cGAS inhibitors” (GlaxoSmithKline Intellectual Property Development Limited, priority 2022, dated 2025).
